Like-named read-outs stand apart in the source and are kept apart here.
Columns and labels:
[1] = system: Acinetobacter baumannii ATCC 17978; design: method as in PMID 32435403; settings: parent compounds, cited from earlier work; for MAC Aba: in the presence of 0.5 × MIC colistin; for MIC/MAC Ratio Aba: minimal ratio
Hemolytic activity = type: cell-based; settings: 0.025–10 μg of compound
Protocol: The hemolytic activity of compounds 1, 2, 8, 9, 45, and 49 (0.025–10 μg) was investigated using the method described by Bechlars et al.. Triton X-100 was used as the hemolysis control and DMSO as the negative control.

K. pneumoniae SI-004Bo = assay: Chequerboard analysis with colistin; type: cell-based, Klebsiella pneumoniae; settings: combination with colistin; pandrug-resistant, colistin-resistant isolate
Source text: (§1) Carbapenem-resistant, colistin-resistant, and XDR clinical isolates were kindly provided by Prof. Gian Maria Rossolini (University of Florence, Italy). Klebsiella pneumoniae SI-004Bo is a KPC-producing, pandrug-resistant isolate (KKBO-4 [17]) selected in vivo during colistin therapy (colistin resistance mechanism, IS-mediated insertional inactivation of mgrB). Acinetobacter baumannii N50 is an OXA-24-producing clinical isolate resistant to all β-lactams, aminoglycosides, and fluoroquinolones.
(§2) The chequerboard analysis is a two-dimensional array in which individual microplate wells contain a unique combination of the concentrations of the tested compound and colistin. Tested concentrations of the compound ranged from 64 to 0.06 μg/mL along the x-axis, whereas polymyxin E1 concentrations ranged from 2 to 0.03 μg/mL (or 32–0.5 μg/mL when polymyxin E1-resistant clinical isolates were used) and varied along the y-axis. Determining the fractional inhibitory concentration (FIC) of both compounds and computing the average FIC index allowed us to determine whether a synergistic, additive, or antagonistic activity between the tested compounds could be observed. A synergistic activity occurred when the average FIC index was equal to or less than 0.5 [21, 27].

A. baumannii ATCC 17978 = assay: Chequerboard analysis with colistin; type: cell-based, Acinetobacter baumannii; settings: combination with colistin; synergy when ≤0.5
Protocol: as §2

Escherichia coli CCUG^T [2] = system: Escherichia coli CCUG^T; design: method as in PMID 32435403; settings: parent compounds, cited from earlier work; for MAC Eco: in the presence of 0.5 × MIC colistin; for MIC/MAC Ratio Eco: minimal ratio
[3] = system: Klebsiella pneumoniae ATCC 13833; design: method as in PMID 32435403; settings: parent compounds, cited from earlier work; for MAC Kpn: in the presence of 0.5 × MIC colistin; for MIC/MAC Ratio Kpn: minimal ratio
K. pneumoniae ATCC 13833 = assay: Chequerboard analysis with colistin; type: cell-based, Klebsiella pneumoniae; settings: combination with colistin; synergy when ≤0.5
Protocol: as §2

A. baumannii N50 = assay: Chequerboard analysis with colistin; type: cell-based, Acinetobacter baumannii; settings: combination with colistin; MDR, colistin-resistant isolate
Source text: as §1, §2

E. coli CCUG^T = assay: Chequerboard analysis with colistin; type: cell-based, Escherichia coli; settings: combination with colistin; synergy when ≤0.5
Protocol: as §2

[4] = system: eight reference strains, Gram-positive and Gram-negative; design: method as in PMID 32435403; settings: parent compound; cited from earlier work
[5] = system: Klebsiella pneumoniae ATCC 13833; assay: MAC determination in the presence of subinhibitory colistin; type: cell-based; design: key to MAC Kpn: -: No synergistic activity; settings: for MAC Kpn: in the presence of 0.5 × MIC colistin; for MIC/MAC Ratio Kpn: minimal ratio of MIC of compound alone to MAC with 0.5 × MIC colistin
Protocol: (§3) The minimum inhibitory concentration (MIC) and minimum bactericidal concentration (MBC) of the compounds were determined in triplicate using Mueller–Hinton broth and a bacterial inoculum of 5 × 10^5 CFU/mL, as recommended by the CLSI [26]. The minimum antibacterial concentration (MAC) of the compounds was determined in the presence of a fixed and subinhibitory concentration of colistin (as mentioned above).

Escherichia coli CCUG^T [6] = assay: as above; type: cell-based; settings: for MAC Eco: in the presence of 0.5 × MIC colistin; for MIC/MAC Ratio Eco: minimal ratio of MIC of compound alone to MAC with 0.5 × MIC colistin
Protocol: as §3

[7] = Membrane integrity assay (LDH release); type: cell-based; settings: human, HeLa cells; tested alone, 24 h exposure; read-out: IC50 cytotoxicity (membrane-damaging activity, LDH release)
Protocol: The potential cytotoxic activity of compounds was evaluated using the commercially available integrity assay (CytoTox 96® non-radioactive cytotoxicity assay, Promega). The compounds were tested for their ability to induce the lysis of HeLa cells by measuring the release of lactate dehydrogenase (LDH) after incubating the HeLa cell cultures (20,000 cells/well) for 24 h (37 °C, 5% CO2) in DMEM (Dulbecco’s Modified Eagle Medium) supplemented with 10% fetal bovine serum, 4.5 mg/mL glucose, and 2 mM L-glutamine in the absence and presence of varying concentrations of the compounds (up to 256 µg/mL). Further controls included samples containing the medium only or in which cell lysis was induced by the addition of 9% Triton X-100 (maximum LDH release control). The percentage of cytotoxicity was computed as 100 × (sample LDH release)/(maximum LDH release). The variation of the percentage of cytotoxicity allowed us to compute an IC50 value (compound concentration inducing 50% cytotoxicity).

[8] = system: Acinetobacter baumannii ATCC 17978; assay: MAC determination in the presence of subinhibitory colistin; type: cell-based; settings: for MAC Aba: in the presence of 0.5 × MIC colistin; for MIC/MAC Ratio Aba: minimal ratio of MIC of compound alone to MAC with 0.5 × MIC colistin
Protocol: as §3

[9] = system: Acinetobacter baumannii N50; assay: MBC determination in the presence of colistin; type: cell-based; settings: in the presence of 2 µg/mL of colistin
Protocol: as §3

[10] = system: Acinetobacter baumannii N50; assay: Time-kill curve analysis; type: cell-based
Protocol: The time-dependent bacterial killing of colistin, compound 9, or a combination thereof was investigated using established methods. Briefly, a culture medium containing a starting inoculum of 5.0 × 10^6 CFU/mL of Acinetobacter baumannii N50 clinical isolate was incubated aerobically at 35 °C under orbital agitation (200 rpm) in Mueller–Hinton broth, in the absence (growth control) or presence of either 2 μg/mL of colistin (a concentration equivalent to the susceptibility breakpoint), 8 µg/mL of compound 9, or both. The bacterial count (expressed in CFU/mL) in the control and antibiotic-containing media was determined every hour for up to 6 h of incubation via serial 10-fold dilution and direct plating of 0.1 mL of the sample on the Mueller–Hinton Agar medium (without antibiotic), which was incubated for 24 h at 35 °C.

HeLa cells = assay: Cell viability and proliferation assay (RealTime-Glo MT); type: cell-based; settings: 16 µg/mL of compound, up to 72 h
Protocol: The cytotoxicity of the compounds was also evaluated by measuring the number of viable cells in the culture with respect to the control culture (cells treated with DMSO only) using the RealTime-Glo™ MT Cell Viability Assay in the presence of varying concentrations of the compound. The assay is a nonlytic homogeneous, bioluminescent method that can be used to measure cell viability/proliferation in real time using NanoLuc® luciferase and a cell-permeant prosubstrate (MT Cell Viability Substrate). […]

## O=C(NCc1ccc2c(c1)OCO2)c1cnn(-c2ccccc2)c1-n1cccc1 [Compound 1]
[1]
  MAC Aba: 32 µg/mL
  MIC/MAC Ratio Aba: 16
Hemolytic activity
  hemolytic activity: no hemolytic activity could be observed
K. pneumoniae SI-004Bo
  Average FIC Index: 1
A. baumannii ATCC 17978
  Average FIC Index: 0.38
Escherichia coli CCUG^T [2]
  MAC Eco: 64 µg/mL
  MIC/MAC Ratio Eco: 8
[3]
  MAC Kpn: 64 µg/mL
  MIC/MAC Ratio Kpn: 8
K. pneumoniae ATCC 13833
  Average FIC Index: 0.5
A. baumannii N50
  Average FIC Index: 0.5
E. coli CCUG^T
  Average FIC Index: 0.5
[4]
  direct antibacterial activity: no direct antibacterial activity was observed

## Cc1c(C(=O)N(C)CCN(C)C)nn(-c2ccc(Cl)cc2)c1-n1cccc1 [Compound 2]
[1]
  MAC Aba: 16 µg/mL
  MIC/MAC Ratio Aba: 32
Hemolytic activity
  hemolytic activity: no hemolytic activity could be observed
K. pneumoniae SI-004Bo
  Average FIC Index: 1
A. baumannii ATCC 17978
  Average FIC Index: 0.39
Escherichia coli CCUG^T [2]
  MAC Eco: 64 µg/mL
  MIC/MAC Ratio Eco: 8
[3]
  MAC Kpn: 32 µg/mL
  MIC/MAC Ratio Kpn: 16
K. pneumoniae ATCC 13833
  Average FIC Index: 0.5
A. baumannii N50
  Average FIC Index: 0.4
E. coli CCUG^T
  Average FIC Index: 0.31

## O=C(NC12CC3CC(CC(C3)C1)C2)c1cnn(-c2ccccc2)c1-n1cccc1 [Compound 8, N-(Adamantan-1-yl)-1-phenyl-5-(1H-pyrrol-1-yl)-1H-pyrazole-4-carboxamide]
Hemolytic activity
  hemolytic activity: no hemolytic activity could be observed
K. pneumoniae SI-004Bo
  Average FIC Index: 1
A. baumannii ATCC 17978
  Average FIC Index: 0.31
[5]
  MAC Kpn: - ^a
K. pneumoniae ATCC 13833
  Average FIC Index: 0.5
Escherichia coli CCUG^T [6]
  MAC Eco: 32 µg/mL
  MIC/MAC Ratio Eco: 16
[7]
  IC50 at 24 h: > 256 µg/mL
other
  melting point: 167 to 169 °C
A. baumannii N50
  Average FIC Index: 0.24
E. coli CCUG^T
  Average FIC Index: 0.38
[8]
  MAC Aba: 4 µg/mL
  MIC/MAC Ratio Aba: 128
[9]
  MBC: > 64 µg/mL

## CC(C)(C)OC(=O)[C@H](Cc1ccccc1)NC(=O)c1cnn(-c2ccccc2)c1-n1cccc1 [Compound 9, tert-Butyl (S)-3-Phenyl-2-[[[1-phenyl-5-(1H-pyrrol-1-yl)-1H-pyrazol-4-yl]carbonyl]amino]propanoate]
Hemolytic activity
  hemolytic activity: no hemolytic activity could be observed
K. pneumoniae SI-004Bo
  Average FIC Index: 1
[10]; 2 µg/mL of colistin and 8 µg/mL of 9, within 5 h
  reduction of bacterial population (time-kill): 4 log10
[10]; 8 µg/mL of 9 alone
  antibacterial activity alone (time-kill): does not exhibit antibacterial activity
HeLa cells
  proliferation of HeLa cells: not significantly altered
A. baumannii ATCC 17978
  Average FIC Index: 0.34
[5]
  MAC Kpn: 8 µg/mL
  MIC/MAC Ratio Kpn: 64
K. pneumoniae ATCC 13833
  Average FIC Index: 0.32
Escherichia coli CCUG^T [6]
  MAC Eco: 8 µg/mL
  MIC/MAC Ratio Eco: 64
A. baumannii N50
  Average FIC Index: 0.23
E. coli CCUG^T
  Average FIC Index: 0.33
[8]
  MAC Aba: 4 µg/mL
  MIC/MAC Ratio Aba: 128
[9]
  MBC: > 64 µg/mL

## Cc1c(C(=O)Nc2ccc(O)cc2)nn(-c2ccc(Cl)cc2)c1-n1cccc1 [Compound 45, 1-(4-Chlorophenyl)-N-(4-hydroxyphenyl)-4-methyl-5-(1H-pyrrol-1-yl)-1H-pyrazole-3-carboxamide]
Hemolytic activity
  hemolytic activity: no hemolytic activity could be observed
K. pneumoniae SI-004Bo
  Average FIC Index: 1
A. baumannii ATCC 17978
  Average FIC Index: 0.31
[5]
  MAC Kpn: 4 µg/mL
  MIC/MAC Ratio Kpn: 128
K. pneumoniae ATCC 13833
  Average FIC Index: 0.31
Escherichia coli CCUG^T [6]
  MAC Eco: 4 µg/mL
  MIC/MAC Ratio Eco: 128
other
  melting point: 226 to 228 °C
A. baumannii N50
  Average FIC Index: 0.26
E. coli CCUG^T
  Average FIC Index: 0.31
[8]
  MAC Aba: 8 µg/mL
  MIC/MAC Ratio Aba: 64
[9]
  MBC: > 64 µg/mL

## Cc1c(C(=O)Nc2ccc(S(C)(=N)=O)cc2)nn(-c2ccc(Cl)cc2)c1-n1cccc1 (stereo not drawn) [Compound 49, 1-(4-Chlorophenyl)-4-methyl-N-[4-(S-methylsulfonimidoyl)phenyl]-5-(1H-pyrrol-1-yl)-1H-pyrazole-3-carboxamide]
Hemolytic activity
  hemolytic activity: no hemolytic activity could be observed
K. pneumoniae SI-004Bo
  Average FIC Index: 1
A. baumannii ATCC 17978
  Average FIC Index: 0.38
[5]
  MAC Kpn: 4 µg/mL
  MIC/MAC Ratio Kpn: 128
K. pneumoniae ATCC 13833
  Average FIC Index: 0.39
Escherichia coli CCUG^T [6]
  MAC Eco: 8 µg/mL
  MIC/MAC Ratio Eco: 64
other
  melting point: 207 to 210 °C
A. baumannii N50
  Average FIC Index: 0.31
E. coli CCUG^T
  Average FIC Index: 0.32
[8]
  MAC Aba: 8 µg/mL
  MIC/MAC Ratio Aba: 64
[9]
  MBC: > 64 µg/mL

## Colistin [reference compound]
[10]; colistin alone at 2 µg/mL
  bactericidal effect (time-kill): not expectedly able to show any bactericidal effect
